Here are results for one substance from publication PMC12494546, “Structural basis of heme scavenging by the ChtA and HtaA hemophores in Corynebacterium diphtheriae” (The Journal of Biological Chemistry, 2025).

Assay [1] deals with ChtA^CR Y129A. Kind of assay: ITC of hemin binding to ChtA^CR Y129A. Set-up: species or system Corynebacterium diphtheriae. The text has this:
(§1) Protein samples were equilibrated in titration buffer supplemented with 5% (v/v) DMSO. […] Binding isotherms were fit to a one-site binding model using the program ORIGIN ([91]).

For assay [2], the target named is IsdA NEAT domain. The arrangement: method as in PMID 23649633, PMID 24245481. To be noted: ITC, ref [57], [58]; cited from earlier work.
For assay [3], the system named is HtaA^CR1 / HtaA^CR2. The experiment in a line: Native ESI-MS hemin partitioning HtaA^CR1 → HtaA^CR2. It is filed as binding, Corynebacterium diphtheriae. To be noted: transfer HtaA^CR1 → HtaA^CR2 (donor HtaA^CR2, acceptor HtaA^CR1). The procedure:
(§2) nESI-MS was used for ligand (heme)-competition experiments between CR domain pairs to determine their relative heme dissociation constant Krelative (Krel) ([37], [56]). In this approach, two different CR domains (e.g. a >90% heme-loaded “heme donor” and a <10% heme-loaded “heme acceptor” CR domain) are mixed and allowed to come to equilibrium (>6 h, 24 °C). The resulting mixture is then analyzed by nESI-MS, where the apo- and holo-abundance of each CR domain is determined from the sum peak intensity from each of their charge states as described previously ([37]). The relative affinity between the CR pair tested can be determined by their nESI-MS abundances according to Equation 1, which is derived from the ratio of each CR’s KD for heme. Importantly, this analysis is independent of [heme] and Krel should be consistent across different concentrations of [heme donor] and [heme acceptor]; thus, we used at least three different holo-donor and apo-acceptor stoichiometry ratios to determine each Krel reported in Table S4.(eq. 1) KRelative=[CR^hemeacceptor][CR^hemedonor·heme]/[CR^hemedonor][CR^hemeacceptor·heme]=Ab(CR^hemeacceptor)Ab(CR^hemedonor·heme)/Ab(CR^hemedonor)Ab(CR^hemeacceptor·heme)
(§3) For nESI-MS heme-competition experiments, CR domains were first buffer-exchanged into 50 mM ammonium acetate (pH 6.9) using dialysis or gel filtration and protein concentration was determined by bicinchoninic acid assay or UV-visible absorbance at 280 nm. Proteins were then mixed at donor:acceptor ratios ranging from 1:9 to 9:1 (but most often 1:3, 1:1, and 3:1), and incubated for at least 6 h at 24 °C. Equilibrated mixtures were then loaded into platinum-coated borosilicate emitter tips with an inner diameter of 200 to 500 nm pulled on a Sutter P-1000 Micropipette Puller and sprayed on a Q-Exactive UHMR Hybrid Quadrupole-Orbitrap Mass Spectrometer (Thermo Fisher Scientific).
(§4) Table of all CR pairs and stoichiometric ratios tested during the native ESI-MS heme equilibrium partitioning experiments. Apo or holo CR domains were mixed at various ratios (most commonly 1:3, 1:1, and 3:1, corresponding to 5:15 µM, 10:10 µM, or 15:5 µM, respectively).

Assay [4] concerns HtaA^CR2 (donor) / ChtA^CR (acceptor). The experiment in a line: Native ESI-MS hemin partitioning HtaA^CR2 → ChtA^CR. The assay is classed as binding, Corynebacterium diphtheriae. The procedure:
as §2, §3, §4

The target of assay [5] is ChtA^CR Y178H. The experiment in a line: ITC of hemin binding to ChtA^CR Y178H. The arrangement: species or system Corynebacterium diphtheriae. To be noted: 25 °C, average of three replicates.
Source text: as §1

“And” between values parts separate entries of the source, which are not always exact repeats. Equal entries are not always repeated.

One may read the Kd as the equilibrium constant for the complex coming apart. Turning to hemin, in assay [1] (ChtA^CR Y129A versus WT), the “decrease in binding affinity” value is listed as more than 25 fold. Moreover, the Kd is more than 500 nM in assay [1] (ChtA^CR Y129A, 25 °C, average of three replicates); 14 ± 4 nM in assay [2]; 54.8 ± 1.9 nM in assay [5]. Further, the “Krel (donor/acceptor)” value in assay [3] (AVERAGE) amounted to 0.84 ± 0.12; in assay [3] (ratio 1:1) it was 0.78; in assay [3] (ratio 1:3) it was 0.98; in assay [3] (ratio 3:1), 0.77; in assay [4] (ratio 1:1), 0.05; in assay [4] (ratio 1:3), 0.05. Moreover, the “Krel (donor/acceptor)” value was 0.03 and 0.06 in assay [4] (ratio 2:1); 0.03 in assay [4] (ratio (donor:acceptor) 3:1). The Krel inverse in assay [3] (AVERAGE) worked out at 1.2 ± 0.15; in assay [3] (ratio 1:1), 1.28; in assay [3] (ratio 1:3) it was 1.02; in assay [3] (ratio 3:1) it was 1.29; in assay [4] (AVERAGE), 24.96 ± 8.87; in assay [4] (ratio 1:1) it was 18.29. The Krel inverse is 19.27 in assay [4] (ratio 1:3) and 32.96 in assay [4] (ratio 3:1).
